From article PMC11149339, “Necessity for higher teicoplanin doses in older adults: a multicenter prospective observational study in China” (BMC Geriatrics, 2024)
Where two headings read alike, the source gives them in different places.

Key:
[1] = Therapeutic drug monitoring of teicoplanin trough concentration (Cmin) during treatment, LC-MS/MS; type: in vivo, human; details: for target concentration achievement rate (≥ 10 mg/L): TDM≥15d; for TDM ≤ 7d (teicoplanin trough concentration) / TDM ≥ 15d (teicoplanin trough concentration): median [IQR], LC-MS/MS
Method: Teicoplanin (Targocid, Sanofi, Dublin, Ireland) was administered intravenously for 30 min. The prescribed dose regimens were at the discretion of treating physicians, and the recommended regimens were not always followed.
Blood samples (5 mL) were collected from the elbow into ethylenediaminetetraacetic acid-containing Vacutainers® (Becton Dickinson, Milan, Italy) in the morning before teicoplanin administration and after drug withdrawal. Samples were promptly refrigerated and centrifuged at 2500 × g for 10 min before 2 mL of supernatant was preserved at -20 °C for subsequent analysis. Teicoplanin concentrations were determined using liquid chromatography-tandem mass spectrometry. The linear range of the method was 1.0–100.0 mg/L, and the lower limit of quantification was 1.0 mg/L. The relative standard deviation of intra- and inter-batch precision was ≤ 10%.
Teicoplanin concentrations were dynamically monitored. Concentrations at 3, ≤ 7, 8–14, and ≥ 15 days after the first dose and within 2 h of the next scheduled dose were recorded as TDM3d, TDM≤7d, TDM8-14d, and TDM≥15d, respectively. Concentrations at 3, ≤ 7, 8–14, and ≥ 15 days after the last teicoplanin dose (withdrawal) were recorded as TDMw3d, TDMw≤7d, TDMw8-14d, and TDMw≥15d. respectively (Fig. 1a). The Cmin target was ≥ 10 mg/L [6, 7, 23]; a concentration < 10 mg/L was considered suboptimal. Average TDM (TDMa) was defined as the mean Cmin after 3 days of treatment.

[2] = Nephrotoxicity (acute kidney injury) during teicoplanin treatment; type: in vivo, human
Text: Patients with renal impairment at baseline were excluded. Nephrotoxicity was defined as acute renal impairment indicated by a serum creatinine increase of > 50% from baseline.

[3] = Hepatotoxicity during teicoplanin treatment; type: in vivo, human
Text: Patients with abnormal liver function at baseline were excluded. Hepatotoxicity was defined as an increase in the alanine aminotransferase or aspartate aminotransferase concentration to more than three times the upper limit of the institution’s normal reference ranges.

[4] = in vivo, cited from earlier work
Text: There are few studies on the optimal dose regimen and target concentration of teicoplanin in older adults.

[5] = ≤ 7 days after first dose, LR-A + MR-A
[6] = ≤ 7 days after first dose, LR-B + MR-A
[7] = ≤ 7 days after first dose, LR-B + MR-B
[8] = ≤ 7 days after first dose, LR-C + MR-B
[9] = ≤ 7 days after first dose, LR-C + MR-C
[10] = ≥ 15 days after first dose, LR-A + MR-A
[11] = ≥ 15 days after first dose, LR-B + MR-A
[12] = ≥ 15 days after first dose, LR-B + MR-B
[13] = ≥ 15 days after first dose, LR-C + MR-B

target concentration achievement rate (≥ 10 mg/L) ([1]; LR-A + MR-A regimen): 77.8%
target concentration achievement rate (≥ 10 mg/L) ([1]; LR-B + MR-A regimen): 84.6%
target concentration achievement rate (≥ 10 mg/L) ([1]; LR-B + MR-B regimen): 100%
target concentration achievement rate (≥ 10 mg/L) ([1]; LR-C + MR-B regimen): 100%
patients achieving therapeutic concentrations ([1]; after 14 days of administration, all patients): more than 80%
patients with TDM 10–20 mg/L ≤ 7d, N (%) [1, 5]: 6(12.2)
patients with TDM < 10 mg/L ≤ 7d, N (%) [1, 5]: 40(81.7)
patients with TDM > 20 mg/L ≤ 7d, N (%) [1, 5]: 3(6.1)
TDM ≤ 7d (teicoplanin trough concentration) ([1]; ≤ 7 days after first dose, LR-A + MR-A (200 mg once daily, then 200 mg once daily)): 6.4[4.7,8.2] mg/L
patients with TDM 10–20 mg/L ≤ 7d, N (%) [1, 6]: 10(18.5)
patients with TDM < 10 mg/L ≤ 7d, N (%) [1, 6]: 41(75.9)
patients with TDM > 20 mg/L ≤ 7d, N (%) [1, 6]: 3(5.6)
TDM ≤ 7d (teicoplanin trough concentration) ([1]; ≤ 7 days after first dose, LR-B + MR-A (400 mg once daily, then 200 mg once daily)): 7.2[5.5,10.0] mg/L
patients with TDM 10–20 mg/L ≤ 7d, N (%) [1, 7]: 2(28.6)
patients with TDM < 10 mg/L ≤ 7d, N (%) [1, 7]: 3(42.8)
patients with TDM > 20 mg/L ≤ 7d, N (%) [1, 7]: 2(28.6)
TDM ≤ 7d (teicoplanin trough concentration) ([1]; ≤ 7 days after first dose, LR-B + MR-B (400 mg once daily, then 400 mg once daily)): 12.42[8.3,22.0] mg/L
patients with TDM 10–20 mg/L ≤ 7d, N (%) [1, 8]: 9(56.2)
patients with TDM < 10 mg/L ≤ 7d, N (%) [1, 8]: 7(43.8)
patients with TDM > 20 mg/L ≤ 7d, N (%) [1, 8]: 0
TDM ≤ 7d (teicoplanin trough concentration) ([1]; ≤ 7 days after first dose, LR-C + MR-B (400 mg at 12-h intervals, then 400 mg once daily)): 11.0[7.0,12.6] mg/L
patients with TDM 10–20 mg/L ≤ 7d, N (%) [1, 9]: 8(57.1)
patients with TDM < 10 mg/L ≤ 7d, N (%) [1, 9]: 2(14.3)
patients with TDM > 20 mg/L ≤ 7d, N (%) [1, 9]: 4(28.6)
TDM ≤ 7d (teicoplanin trough concentration) ([1]; ≤ 7 days after first dose, LR-C + MR-C (400 mg at 12-h intervals, then 400 mg twice daily)): 14.4[12.0,21.2] mg/L
TDM ≤ 7d (teicoplanin trough concentration) ([1]; ≤ 7 days after first dose, all patients (N = 204), iv): 7.6[5.6,12.2] mg/L
patients having suboptimal concentrations (< 10 mg/L), TDM≤7d ([1]; ≤ 7 days after first dose, all patients, 93 patients): 66.4%
patients with TDM 10–20 mg/L ≥ 15d, N (%) [1, 10]: 16(59.3)
patients with TDM < 10 mg/L ≥ 15d, N (%) [1, 10]: 6(22.2)
patients with TDM > 20 mg/L ≥ 15d, N (%) [1, 10]: 5(18.5)
TDM ≥ 15d (teicoplanin trough concentration) ([1]; ≥ 15 days after first dose, LR-A + MR-A (200 mg once daily, then 200 mg once daily)): 12.7[10.1,17.4] mg/L
patients with TDM 10–20 mg/L ≥ 15d, N (%) [1, 11]: 15(57.7)
patients with TDM < 10 mg/L ≥ 15d, N (%) [1, 11]: 4(15.4)
patients with TDM > 20 mg/L ≥ 15d, N (%) [1, 11]: 7(26.9)
TDM ≥ 15d (teicoplanin trough concentration) ([1]; ≥ 15 days after first dose, LR-B + MR-A (400 mg once daily, then 200 mg once daily)): 15.7[11.9,22.0] mg/L
patients with TDM 10–20 mg/L ≥ 15d, N (%) [1, 12]: 1(50.0)
patients with TDM < 10 mg/L ≥ 15d, N (%) [1, 12]: 0
patients with TDM > 20 mg/L ≥ 15d, N (%) [1, 12]: 1(50.0)
TDM ≥ 15d (teicoplanin trough concentration) ([1]; ≥ 15 days after first dose, LR-B + MR-B (400 mg once daily, then 400 mg once daily)): 20.3[13.8,20.4] mg/L
patients with TDM 10–20 mg/L ≥ 15d, N (%) [1, 13]: 1(33.3)
patients with TDM < 10 mg/L ≥ 15d, N (%) [1, 13]: 0
patients with TDM > 20 mg/L ≥ 15d, N (%) [1, 13]: 2(66.7)
TDM ≥ 15d (teicoplanin trough concentration) ([1]; ≥ 15 days after first dose, LR-C + MR-B (400 mg at 12-h intervals, then 400 mg once daily)): 23.0[19.4,28.6] mg/L
TDM ≥ 15d (teicoplanin trough concentration) ([1]; ≥ 15 days after first dose, all patients (N = 204), iv): 15.8[11.0,21.8] mg/L
patients having suboptimal concentrations (< 10 mg/L), TDM≥15d ([1]; ≥ 15 days after first dose, all patients, 10 patients): 17.0%
Substance: Teicoplanin
incidence of acute kidney injury (AKI) / nephrotoxicity ([2]; TDMa < 10 mg/L (5/52)): 9.6%
incidence of acute kidney injury (AKI) / nephrotoxicity ([2]; TDMa = 10–20 mg/L (6/50)): 12.0%
incidence of acute kidney injury (AKI) / nephrotoxicity ([2]; TDMa = 20–40 mg/L (4/18)): 22.2%
incidence of acute kidney injury (AKI) / nephrotoxicity ([2]; all evaluable patients (15/120), serum creatinine increase > 50% from baseline): 12.5%
incidence of hepatotoxicity ([3]; TDMa < 10 mg/L (2/65)): 3.1%
incidence of hepatotoxicity ([3]; TDMa = 10–20 mg/L (3/57)): 5.3%
incidence of hepatotoxicity ([3]; TDMa = 20–40 mg/L (1/26)): 3.8%
incidence of hepatotoxicity ([3]; all evaluable patients (6/148), ALT or AST more than three times the upper limit of normal): 4.1%
average elimination half-life ([4]; human): 107 h
half-life of teicoplanin ([4]; human): 71 to 80 h
half-life of teicoplanin [4]: 71 to 163 h
